From patent publication US20260232642A1, “RNA-BINDING MOLECULES WITH A SMALL CORE SCAFFOLD (R-SCORE) AND USES THEREOF” (Max-Planck-Gesellschaft zur Förderung der Wissenschaften …, priority 2022, published 2026) come the findings set out here.

Experiment [1] concerns JAR cells. Description: MTT assay, JAR. It is filed as cell-based, human. The note with it: 72 h, choriocarcinoma cell line, read-out: Cell lines IC50 [μM] JAR. As to the method: (§1) MAD-MB-231, MCF-7 and JAR cells were cultured in Dulbecco's modified Eagle's (DMEM) medium supplemented with 10% Fetal Bovine Serum (FBS), 100 u/mL penicillin-streptomycin. Jurkat, Molt-4 and Ramos cells were cultured in Roswell Park Memorial Institute (RPMI) 1640 medium with 10% Fetal Bovine Serum (FBS), 100 u/mL penicillin-streptomycin. All cell lines grown in an incubator with humidified 5% CO2 at 37° C.
(§2) Jurkat, Molt-4 and Ramos cells were collected and seeded into 96-well plates at a density of 8000-10000 per well and treated with compounds. MCF-7, MDA-MB-231 and JAR cells were collected and seeded into 96-well plates at a density of 2000-3000 per well and cultured overnight to adherent before treat with compounds. After exposed to increasing concentrations of compounds for 72 h, the cells in each well were mixed with 20 μL of 5 mg/ml MTT (3-(4,5-dimethylthiazol-2-yl)-2,5-diphenyltetrazolium bromide) for 2 h, then add 50 μL of 20% SDS/0.01 M HCl incubated overnight, and detected the absorbance at a wavelength of 570 nm.
(§3) Inhibition rate was calculated using the equation: […]
(§4) The IC50 values were calculated by using GraphPad Prism 9 software fitting to a dose-response inhibition equation.

In experiment [2] the test system is precursor microRNA-21 hairpin (pre-miR-21 hp). Nature of the experiment: Differential scanning fluorimetry (DSF), pre-miR-21 hairpin. Type of experiment: binding. The note with it: 60 uM compound, 1 μM hairpin in PBS, Tm of compound minus Tm of DMSO control. As to the method: (§5) To measure the binding between compounds and precursor microRNA-21 hairpin (pre-miR-21 hp) or precursor microRNA-17 hairpin (pre-miR-17 hp), DSF was performed as previously described with modification (ACS Chem. Biol. 2017, 12, 2, 435-443). Precursor microRNA hairpin was dissolved in PBS and annealed by briefly heating to 95° C. for 3 min and slowly cooling to rt. Assay was performed in duplicates using white qPCR 8-strips (VWR) with a total volume of 10 μL in PBS. The total reaction consisted of 1 μM precursor microRNA hairpin, 1% test compound (DMSO dilution) and 2×SYBR GreenII (Thermo Fisher Scientific). Compounds were incubated with precursor microRNA hairpin at for 10 min at rt, then SYBR GreenII was added to each well, mixed and incubated 10 min at rt. The strips were spined and loaded to the RT-PCR detection system (BIO-RAD CFX Connect), the fluorescence intensity was obtained every 1° C. for 30 s in the range of 20° C. to 80° C.
(§6) The melting temperature (Tm) was determined by the maximum of the negative of the first derivative of the fluorescence vs temperature melting curves. The ΔTm was calculated by the Tm value of compound subtract the Tm value of the DMSO control.

Experiment [3] deals with precursor microRNA-17 hairpin (pre-miR-17 hp). Description: Differential scanning fluorimetry (DSF), pre-miR-17 hairpin. It is filed as binding. Particulars: 60 uM compound, 1 μM hairpin in PBS, Tm of compound minus Tm of DMSO control. As to the method: as §5, §6
Experiment [4] deals with MDA-MB-231 cells. Description: MTT assay, MDA-MB-231. It is filed as cell-based, human. Particulars: breast cancer cell line, read-out: Cell lines IC50 [μM] MDA-MB-231. As for the experimental part: as §1, §2, §3, §4
Experiment [5] deals with MCF-7 cells. Nature of the experiment: MTT assay, MCF-7. Particulars: breast cancer cell line, read-out: Cell lines IC50 [μM] MCF-7. Type of experiment: cell-based, human. As to the method: as §1, §2, §3, §4
The subject of experiment [6] is Ramos cells. Nature of the experiment: MTT assay, Ramos. The note with it: 72 h, Burkitt lymphoma cell line, read-out: Cell lines IC50 [μM] Ramos. It is filed as cell-based, human. As to the method: as §1, §2, §3, §4
For experiment [7], the system named is Molt-4 cells. Description: MTT assay, Molt-4. Type of experiment: cell-based, human. The note with it: acute leukemia cell line, read-out: Cell lines IC50 [μM] Molt-4. As for the experimental part: as §1, §2, §3, §4
Experiment [8] concerns Jurkat cells. Nature of the experiment: MTT assay, Jurkat. It is filed as cell-based, human. Particulars: 72 h, acute leukemia cell line, read-out: Cell lines IC50 [μM] Jurkat. As for the experimental part:
as §1, §2, §3, §4

Where two headings read alike, the source gives them in different places.

For the compound “3-(4-(1H-benzo[d]imidazol-6-yl)phenyl)-1-(3-aminothieno[2,3-b]pyridine-2-carbonyl)-4-(hydroxymethyl)azetidine-2-carbonitrile [Compound A7]”, the results for the IC50 in experiment [1], in experiment [4] (72 h) and in experiment [5] (72 h) were 5.74 µM, more than 20 µM and more than 20 µM, respectively. Also, the “ΔTm (pre-miR-21 hp) @60 uM [° C.]” value in experiment [2] amounted to 0 °C. In experiment [3], the “ΔTm (pre-miR-17 hp) @60 uM [° C.]” value was determined as 0 °C.

Consider `N#CC1C(c2ccc(-c3ccc(C(F)(F)F)cc3)cc2)C(CO)N1C(=O)c1ccc(NC(=O)c2sc3ncccc3c2N)cc1` (centres unmarked) [Compound A1, 1-(1-amino-(3-aminothieno[2,3-b]pyridine-2-carbonyl)phenyl-4-carbonyl)-4-(hydroxymethyl)-3-(4′-(trifluoromethyl)-[1,1′-biphenyl]-4-yl) azetidine-2-carbonitrile], for which the half-maximal inhibitory concentration (IC50) in experiment [1] (Homo sapiens) was 2.95 µM; in experiment [6] (Homo sapiens, Ramos) it was 4.81 µM; in experiment [7] (Homo sapiens, MOLT-4, 72 h), 2.91 µM; in experiment [4] (Homo sapiens, MDA-MB-231, 72 h) it was 10 µM; in experiment [8] (Homo sapiens, Jurkat), 2.81 µM; in experiment [5] (Homo sapiens, MCF7, 72 h), 5.95 µM. Further, the “ΔTm (pre-miR-21 hp) @60 uM [° C.]” value in experiment [2] is −2 °C. Also, in experiment [3], the “ΔTm (pre-miR-17 hp) @60 uM [° C.]” value was −3 °C.

As for `N#CC1C(c2ccc(-c3ccc(C(F)(F)F)cc3)cc2)C(CO)N1C(=O)c1sc2ncccc2c1N` (centres unmarked) [Compound A2, 1-(3-aminothieno[2,3-b]pyridine-2-carbonyl)-4-(hydroxymethyl)-3-(4′-(trifluoromethyl)-[1,1 biphenyl]-4-yl) azetidine-2-carbonitrile], the half-maximal inhibitory concentration (IC50) in experiment [1] is 3.41 µM; in experiment [6] it was 3.8 µM; in experiment [7] (72 h) it was 4.61 µM; in experiment [8], 3.35 µM. The “ΔTm (pre-miR-21 hp) @60 uM [° C.]” value in experiment [2] was −2.5 ± 0.5 °C. For the same compound, the “ΔTm (pre-miR-17 hp) @60 uM [° C.]” value in experiment [3] is −2 °C.

Turning to `N#CC1C(c2ccc(-c3ccc(C(F)(F)F)cc3)cc2)C(CO)N1C(=O)c1sc2ncccc2c1N` (centres unmarked) [Compound A3, 1-(3-aminothieno[2,3-b]pyridine-2-carbonyl)-4-(hydroxymethyl)-3-(4′-(trifluoromethyl)-[1,1′-biphenyl]-4-yl) azetidine-2-carbonitrile], the concentration for half-maximal inhibition (IC50) was found to be 9.75 µM in experiment [1]; 7.03 µM in experiment [6] (Homo sapiens, Ramos); 10.8 µM in experiment [7] (72 h); 18.6 µM in experiment [4] (Homo sapiens, MDA-MB-231, 72 h); 3.73 µM in experiment [8] (Homo sapiens, Jurkat); 6.22 µM in experiment [5] (Homo sapiens, MCF7, 72 h). Also, the “ΔTm (pre-miR-21 hp) @60 uM [° C.]” value in experiment [2] is −6 °C. The “ΔTm (pre-miR-17 hp) @60 uM [° C.]” value in experiment [3] is −6.5 ± 0.5 °C.

As to `CCCN1C(CO)C(c2ccc(-c3ccc(C(F)(F)F)cc3)cc2)C1CNC(=O)c1sc2ncccc2c1N` (centres unmarked) [Compound A4, 3-amino-N-((4-(hydroxymethyl)-1-propyl-3-(4′-(trifluoromethyl)-[1,1′-biphenyl]-4-yl)azetidin-2-yl)methyl) thieno[2,3-b]pyridine-2-carboxamide], the IC50 was 2.3 µM in experiment [1], 7.02 µM in experiment [4] (72 h) and 5.79 µM in experiment [5] (72 h). In experiment [2], the “ΔTm (pre-miR-21 hp) @60 uM [° C.]” value was −2 °C. Further, the “ΔTm (pre-miR-17 hp) @60 uM [° C.]” value in experiment [3] is −1 °C.

With `CCCN1C(CO)C(c2ccc(-c3ccc(C(F)(F)F)cc3)cc2)C1CNC(=O)c1sc2ncccc2c1N` (centres unmarked) [Compound A5, 3-amino-N-((4-(hydroxymethyl)-1-propyl-3-(4′-(trifluoromethyl)-[1,1′-biphenyl]-4-yl)azetidin-2-yl)methyl) thieno[2,3-b]pyridine-2-carboxamide], the 50% inhibitory concentration (IC50) in experiment [6] (Homo sapiens, Ramos) came to 5.05 µM; in experiment [7] (Homo sapiens, MOLT-4, 72 h), 5.49 µM; in experiment [8] (Homo sapiens, Jurkat), 5.13 µM.

Turning to `CCCN1C(CO)C(c2ccc(-c3ccc4nc[nH]c4c3)cc2)C1CNC(=O)c1sc2ncccc2c1N` (centres unmarked) [Compound A8, N-((3-(4-(1H-benzo[d]imidazol-6-yl)phenyl)-4-(hydroxymethyl)-1-propylazetidin-2-yl)methyl)-3-aminothieno[2,3-b]pyridine-2-carboxamide], the IC50 in experiment [6] (Homo sapiens, Ramos) came to 26.8 µM; in experiment [7] (Homo sapiens, MOLT-4, 72 h) it was 8.5 µM; in experiment [8] (Homo sapiens, Jurkat) it was 19.1 µM.

As to `CCCN1C(CO)C(c2ccc(-c3ccc4nc[nH]c4c3)cc2)C1CNC(=O)c1sc2ncccc2c1N` (centres unmarked) [Compound A9, N-((3-(4-(1H-benzo[d]imidazol-6-yl)phenyl)-4-(hydroxymethyl)-1-propylazetidin-2-yl)methyl)-3-aminothieno[2,3-b]pyridine-2-carboxamide], the 50% inhibitory concentration (IC50) in experiment [1] (Homo sapiens) is 9.56 µM; in experiment [6], more than 20 µM; in experiment [7] (72 h), 11.4 µM; in experiment [4] (Homo sapiens, MDA-MB-231, 72 h) it was more than 20 µM; in experiment [8], more than 20 µM; in experiment [5] (Homo sapiens, MCF7, 72 h), more than 20 µM. Besides, the “ΔTm (pre-miR-21 hp) @60 uM [° C.]” value in experiment [2] was found to be 0 °C. Moreover, in experiment [3], the “ΔTm (pre-miR-17 hp) @60 uM [° C.]” value was found to be 0 °C.

For the compound `CNc1nc(N2CC(c3ccc(-c4c(C)noc4C)cc3)C2C#N)nc2ccccc12` (centres unmarked) [Compound B1, 3-(4-(3,5-dimethylisoxazol-4-yl)phenyl)-1-(4-(methylamino)quinazolin-2-yl) azetidine-2-carbonitrile], the IC50 is 1.74 µM in experiment [1] (Homo sapiens); 7.35 µM in experiment [6]; 7.01 µM in experiment [7] (Homo sapiens, MOLT-4, 72 h); 14.4 µM in experiment [4] (Homo sapiens, MDA-MB-231, 72 h); 6.31 µM in experiment [8] (Homo sapiens, Jurkat); 9.92 µM in experiment [5] (Homo sapiens, MCF7, 72 h). In addition, in experiment [2], the “ΔTm (pre-miR-21 hp) @60 uM [° C.]” value came out at 0 °C. In experiment [3], the “ΔTm (pre-miR-17 hp) @60 uM [° C.]” value turned out to be 0 °C.

In the case of `Cc1noc(C)c1-c1ccc(C2CN(C(=O)c3sc4ncccc4c3N)C2C#N)cc1` (centres unmarked) [Compound B3, 1-(3-aminothieno[2,3-b]pyridine-2-carbonyl)-3-(4-(3,5-dimethylisoxazol-4-yl)phenyl) azetidine-2-carbonitrile], the results for the half-maximal inhibitory concentration (IC50) in experiment [1], in experiment [4] (72 h) and in experiment [5] (72 h) were 1.28 µM, 12.5 µM and 5.72 µM, respectively.

As to `Cc1noc(C)c1-c1ccc(C2CN(C(=O)c3sc4ncccc4c3N)C2C#N)cc1` (centres unmarked) [Compound B4, 1-(3-aminothieno[2,3-b]pyridine-2-carbonyl)-3-(4-(3,5-dimethylisoxazol-4-yl)phenyl) azetidine-2-carbonitrile], the IC50 was 5.92 µM in experiment [1]; 12.4 µM in experiment [6] (Homo sapiens, Ramos); 10.6 µM in experiment [7] (Homo sapiens, MOLT-4, 72 h); more than 20 µM in experiment [4] (Homo sapiens, MDA-MB-231, 72 h); 7.3 µM in experiment [8] (Homo sapiens, Jurkat); 12.5 µM in experiment [5] (72 h). Besides, the “ΔTm (pre-miR-21 hp) @60 uM [° C.]” value in experiment [2] is 0 °C. Also, the “ΔTm (pre-miR-17 hp) @60 uM [° C.]” value in experiment [3] worked out at 0 °C.

For `CNc1nc(N2CC(C3(C(F)(F)F)C=CC(c4ccccc4)=CC3)C2C#N)nc2ccccc12` (centres unmarked) [Compound B6, 1-(4-(methylamino)quinazolin-2-yl)-3-(4 (trifluoromethyl)-[1,1′-biphenyl]-4-yl) azetidine-2-carbonitrile], the half-inhibitory concentration (IC50) worked out at 1.29 µM in experiment [1] (Homo sapiens); 1.82 µM in experiment [6] (Homo sapiens, Ramos); 4.79 µM in experiment [7] (Homo sapiens, MOLT-4, 72 h); 7.07 µM in experiment [4] (Homo sapiens, MDA-MB-231, 72 h); 5.47 µM in experiment [8] (Homo sapiens, Jurkat); 5.23 µM in experiment [5] (Homo sapiens, MCF7, 72 h). Also, the “ΔTm (pre-miR-17 hp) @60 uM [° C.]” value in experiment [3] is 1.25 °C.

In the case of `N#CC1C(c2ccc(-c3ccc(C(F)(F)F)cc3)cc2)CN1C(=O)c1sc2ncccc2c1N` (centres unmarked) [Compound B7, 1-(3-aminothieno[2,3-b]pyridine-2-carbonyl)-3-(4′-(trifluoromethyl)-[1,1′-biphenyl]-4-yl) azetidine-2-carbonitrile], the IC50 in experiment [1] turned out to be 1.16 µM; in experiment [1] (Homo sapiens) it was 1.5 µM; in experiment [6] (Homo sapiens, Ramos), 6.61 µM; in experiment [7] (Homo sapiens, MOLT-4, 72 h), 13.9 µM; in experiment [8] (Homo sapiens, Jurkat), 7.42 µM.
